# From article PMC6934184, “Selective DNA-PKcs inhibition extends the therapeutic index of localized radiotherapy and chemotherapy” (The Journal of Clinical Investigation, 2019)
# Biological target: T1, NTRK2 (TRKB) (Homo sapiens, UniProt Q16620)
# T1 construct: purchased Thermo Fisher Scientific (Life Technologies) SelectScreen
# Assay: SelectScreen Z'LYTE
# Type: biochemical
# Summary of the method: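 NU5455 was profiled across the SelectScreen Broad panel of kinase activity and binding assays. Z'LYTE reactions such as CSF1R ran at apparent Km ATP, while the Adapta CAMK1 assay used ATP listed as 10. Values are given as percent.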
# T1 sequence (Q16620 32-822): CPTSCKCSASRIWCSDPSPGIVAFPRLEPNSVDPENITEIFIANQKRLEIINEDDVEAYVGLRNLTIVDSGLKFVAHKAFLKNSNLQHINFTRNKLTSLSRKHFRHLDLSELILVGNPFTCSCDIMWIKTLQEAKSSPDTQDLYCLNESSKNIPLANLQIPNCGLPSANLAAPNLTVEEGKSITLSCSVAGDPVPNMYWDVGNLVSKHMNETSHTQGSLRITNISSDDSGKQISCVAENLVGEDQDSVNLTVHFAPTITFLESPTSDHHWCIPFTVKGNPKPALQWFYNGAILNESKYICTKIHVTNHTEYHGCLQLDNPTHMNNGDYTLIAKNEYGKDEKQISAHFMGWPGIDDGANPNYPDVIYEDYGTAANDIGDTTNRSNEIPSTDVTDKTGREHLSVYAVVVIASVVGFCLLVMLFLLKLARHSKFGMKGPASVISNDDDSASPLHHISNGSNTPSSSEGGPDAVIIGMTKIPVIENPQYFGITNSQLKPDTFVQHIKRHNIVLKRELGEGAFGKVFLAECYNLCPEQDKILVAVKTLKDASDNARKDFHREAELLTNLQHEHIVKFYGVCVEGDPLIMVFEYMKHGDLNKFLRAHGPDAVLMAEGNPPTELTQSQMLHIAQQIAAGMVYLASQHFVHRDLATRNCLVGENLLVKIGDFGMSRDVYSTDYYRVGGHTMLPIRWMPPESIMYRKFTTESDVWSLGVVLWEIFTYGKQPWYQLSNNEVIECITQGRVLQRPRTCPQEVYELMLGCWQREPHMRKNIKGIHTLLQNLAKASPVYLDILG
smiles,measurement,value
CN(C(=O)CN1CCOCC1)c1ccc2sc3c(-c4cccc5c(=O)cc(N6CC7CCC(C6)O7)oc45)cccc3c2c1 [NU5455],inhibition at 1 µM,5.1%
